The values below are quoted from earlier work in patent publication EP0682945B1, “Oral sustained release preparation” (Lannacher Heilmittel Ges.m.b.H., priority 1994, dated 1995).

SMILES strings stand for the structures.

For this series the following is noted: orale Anwendung, im Mittel.

Consider `CN1CC[C@]23c4c5ccc(O)c4O[C@H]2[C@@H](O)C=C[C@H]3[C@H]1C5` [Morphin], for which the Bioverfügbarkeit is given as 38%.
